The assay concerns the target Survival motor neuron protein (Homo sapiens, UniProt Q16637). Briefly: Stabilization of human SMN protein expressed in HEK293 cells expressing SMN2 promoter after 24 hrs by luciferase reporter gene assay.

Each structure is given as a SMILES string.

Sequence of Survival motor neuron protein (Q16637 whole entry): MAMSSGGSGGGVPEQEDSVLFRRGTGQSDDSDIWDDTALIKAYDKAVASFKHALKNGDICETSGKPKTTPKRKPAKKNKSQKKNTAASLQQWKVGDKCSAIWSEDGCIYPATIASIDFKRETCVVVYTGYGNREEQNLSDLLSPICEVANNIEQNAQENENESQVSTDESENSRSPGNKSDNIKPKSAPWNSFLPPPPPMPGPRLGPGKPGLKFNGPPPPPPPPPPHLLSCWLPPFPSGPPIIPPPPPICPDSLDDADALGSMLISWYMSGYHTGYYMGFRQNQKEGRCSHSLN

For the molecule `CC(C)c1cc(C(=O)N2CCc3ccccc32)no1`, a half-maximal effect (EC50) was put at 720 nM.

With `CC(C)c1cc(CNc2ccc(F)c(Cl)c2)no1`, the EC50 was 11200 nM.

Regarding `O=C(Nc1ccc(F)c(Cl)c1)c1cc(Cc2ccccc2)on1`, the EC50 was determined as 3560 nM.

For the molecule `CC(C)(C)c1cc(C(=O)Nc2ccc(F)c(Cl)c2)no1`, the half-maximal effective concentration (EC50) amounted to 1930 nM.

As to `CCc1cc(C(=O)Nc2ccc(F)c(Cl)c2)no1`, the EC50 turned out to be 8800 nM.

Molecule `CC(C)c1cc(C(=O)Nc2nc3ccccc3s2)no1` came in with a 50% effective concentration (EC50) of 170 nM.

`CC(C)c1cc(C(=O)Nc2nc3ccccc3n2C)no1`: the EC50 stood at 2600 nM.

On to `CC(C)c1cc(C(=O)Nc2nccs2)no1`, for which the midpoint of the response, the EC50, lay at 780 nM.

Turning to `CC(C)c1cc(C(=O)Nc2ccccn2)no1`, the 50% effective concentration (EC50) was determined as 360 nM.

Turning to `Cc1cccc(NC(=O)c2cc(C(C)C)on2)c1`, the EC50 was 1800 nM.

Take `Cc1ccccc1NC(=O)c1cc(C(C)C)on1`: the EC50 turned out to be 5400 nM.

Turning to `COc1ccccc1NC(=O)c1cc(C(C)C)on1`, a half-maximal effect (EC50) was put at 7300 nM.

`CC(C)c1cc(C(=O)Nc2ccc(Cl)cc2)no1` had a 50% effective concentration (EC50) of 2800 nM.

`CC(C)c1cc(C(=O)Nc2ccccc2Cl)no1` registered a 50% effective concentration (EC50) of 6200 nM.

Molecule `CC(C)c1cc(C(=O)Nc2ccccc2F)no1` returned a half-maximal effective concentration (EC50) of 260 nM.

In turn, `CC(C)c1cc(C(=O)Nc2ccccc2)no1` displayed a 50% effective concentration (EC50) of 280 nM.

For the molecule `Cc1c(C(=O)Nc2ccc(F)c(Cl)c2)noc1C(C)C`, the response was half-maximal at 500 nM (EC50).

Consider `CC(C)c1nc(NC(=O)c2ccc(F)c(Cl)c2)cs1`, for which the EC50 is 1600 nM.

The molecule `CC(C)c1cc(NC(=O)c2ccc(F)c(Cl)c2)on1` came in with a concentration for a half-maximal effect (EC50) of 5500 nM.

With `CC(C)c1cc(NC(=O)c2ccc(F)c(Cl)c2)no1`, the EC50 came to 9900 nM.

`O=C(Nc1ncc(C2CCC2)s1)c1ccc(F)c(Cl)c1` registered an EC50 of 500 nM.

The molecule `CC(C)c1cc(C(=S)Nc2ccc(F)c(Cl)c2)no1` registered an EC50 of 13900 nM.

The molecule `CC(C)Cc1cc(C(=O)Nc2ccc(F)c(Cl)c2)no1` gave a 50% effective concentration (EC50) of 1500 nM.

Molecule `CC(C)c1cc(C(=O)Nc2nc3ccccc3[nH]2)no1` registered an EC50 of 260 nM.

Turning to `Cc1ccc(NC(=O)c2cc(C(C)C)on2)cc1`, the response was half-maximal at 1400 nM (EC50).

Consider `COc1cccc(NC(=O)c2cc(C(C)C)on2)c1`, for which the EC50 is 3600 nM.

For the molecule `CC(C)c1cc(C(=O)Nc2cccc(F)c2)no1`, it took 340 nM to reach a half-maximal effect (EC50).

For the molecule `CC(C)c1cc(C(=O)Nc2ccc(F)cc2)no1`, the EC50 is 1800 nM.

`CC(C)c1cc(C(=O)Nc2cccc(Cl)c2)no1` [MLS000087323] registered an EC50 of 860 nM.

`CC(C)c1cc(C(=O)Nc2cccnc2)no1` [MLS000087329] yielded an EC50 of 9900 nM.
